Assay results reported in ChEMBL document CHEMBL1201862, “PubChem BioAssay data set” (2004).
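Assay format: 96-well plates, 48-hour exposure. GI50 marks 50% less growth.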 The source made the active and inactive calls. No stated cut-off is given here; in the data, active = GI50 up to about 1.1 µM and inactive = higher.

Experiments:
Test in all cases: DTP human tumour cell line panel, 48 h
[1] = tested on: 786-0
[2] = tested on: ACHN
[3] = tested on: DU-145
[4] = tested on: EKVX
[5] = tested on: HL-60
[6] = tested on: Hs-578T
[7] = tested on: IGROV-1
[8] = tested on: KM12
[9] = tested on: MDA-MB-231
[10] = tested on: MDA-MB-435
[11] = tested on: MOLT-4
[12] = tested on: Malme-3M
[13] = tested on: OVCAR-4
[14] = tested on: SF-268
[15] = tested on: SF-295
[16] = tested on: SK-MEL-2
[17] = tested on: SK-MEL-5
[18] = tested on: SK-OV-3
[19] = tested on: SNB-75
[20] = tested on: UACC-62

## OCc1ccc2c(c1)CC1(C2)Cc2cc3c(cc2C1O)CCC3 (centres undefined)
[1]
  GI50: 5.64 µM (inactive)
[2]
  GI50: 6.67 µM (inactive)
[3]
  GI50: 9.1 µM (inactive)
[4]
  GI50: 10.1 µM (inactive)
[5]
  GI50: 2.2 µM (inactive)
[6]
  GI50: 2.71 µM (inactive)
[7]
  GI50: 4.84 µM (inactive)
[8]
  GI50: 2.87 µM (inactive)
[9]
  GI50: 2.65 µM (inactive)
[10]
  GI50: 0.65 µM (active)
[11]
  GI50: 4.09 µM (inactive)
[12]
  GI50: 5.01 µM (inactive)
[13]
  GI50: 10.4 µM (inactive)
[14]
  GI50: 10.9 µM (inactive)
[15]
  GI50: 2.2 µM (inactive)
[16]
  GI50: 3.33 µM (inactive)
[17]
  GI50: 3.04 µM (inactive)
[18]
  GI50: 8.75 µM (inactive)
[19]
  GI50: 3.85 µM (inactive)
[20]
  GI50: 3.72 µM (inactive)

## CCOC(CNc1nn2c(C)nnc2s1)OCC
[1]
  GI50: > 100 µM (inactive)
[2]
  GI50: > 100 µM (inactive)
[3]
  GI50: > 100 µM (inactive)
[4]
  GI50: > 100 µM (inactive)
[5]
  GI50: > 100 µM (inactive)
[6]
  GI50: > 100 µM (inactive)
[7]
  GI50: > 100 µM (inactive)
[8]
  GI50: > 100 µM (inactive)
[9]
  GI50: > 100 µM (inactive)
[10]
  GI50: > 100 µM (inactive)
[11]
  GI50: > 100 µM (inactive)
[12]
  GI50: > 100 µM (inactive)
[13]
  GI50: > 100 µM (inactive)
[14]
  GI50: > 100 µM (inactive)
[15]
  GI50: > 100 µM (inactive)
[16]
  GI50: > 100 µM (inactive)
[17]
  GI50: > 100 µM (inactive)
[18]
  GI50: > 100 µM (inactive)
[19]
  GI50: > 100 µM (inactive)
[20]
  GI50: > 100 µM (inactive)

## COc1cccc(-c2cc(O)c3c(C)cc(C)nc3n2)c1
[1]
  GI50: 0.435 µM (active)
[2]
  GI50: 0.555 µM (active)
[3]
  GI50: 1.21 µM (inactive)
[4]
  GI50: 3.85 µM (inactive)
[5]
  GI50: 0.182 µM (active)
[6]
  GI50: 0.538 µM (active)
[7]
  GI50: 0.486 µM (active)
[8]
  GI50: 0.264 µM (active)
[9]
  GI50: 1.6 µM (inactive)
[10]
  GI50: 0.0512 µM (active)
[11]
  GI50: 0.531 µM (active)
[12]
  GI50: 0.252 µM (active)
[13]
  GI50: 4.09 µM (inactive)
[14]
  GI50: 0.578 µM (active)
[15]
  GI50: 0.493 µM (active)
[16]
  GI50: 0.615 µM (active)
[17]
  GI50: 0.301 µM (active)
[18]
  GI50: 0.468 µM (active)
[19]
  GI50: 0.167 µM (active)
[20]
  GI50: 0.448 µM (active)

## CC(C)c1cc(C(F)(F)F)nc(NNc2nc(C(C)C)cc(C(F)(F)F)n2)n1
[1]
  GI50: 28.4 µM (inactive)
[2]
  GI50: 56.8 µM (inactive)
[3]
  GI50: > 100 µM (inactive)
[4]
  GI50: 67.5 µM (inactive)
[5]
  GI50: > 100 µM (inactive)
[6]
  GI50: 79.4 µM (inactive)
[7]
  GI50: > 100 µM (inactive)
[8]
  GI50: > 100 µM (inactive)
[9]
  GI50: 65.3 µM (inactive)
[10]
  GI50: > 100 µM (inactive)
[11]
  GI50: > 100 µM (inactive)
[12]
  GI50: 49 µM (inactive)
[13]
  GI50: 72.6 µM (inactive)
[14]
  GI50: > 100 µM (inactive)
[15]
  GI50: 37.1 µM (inactive)
[16]
  GI50: > 100 µM (inactive)
[17]
  GI50: > 100 µM (inactive)
[18]
  GI50: 33.7 µM (inactive)
[19]
  GI50: 24.2 µM (inactive)
[20]
  GI50: 80 µM (inactive)

## O=C(O)C(O)C(O)C(O)C(O)CO.[Ba+2] (centres undefined)
[1]
  GI50: > 100 µM (inactive)
[2]
  GI50: > 100 µM (inactive)
[3]
  GI50: > 100 µM (inactive)
[4]
  GI50: > 100 µM (inactive)
[5]
  GI50: 3.12 µM (inactive)
[6]
  GI50: > 100 µM (inactive)
[7]
  GI50: > 100 µM (inactive)
[8]
  GI50: > 100 µM (inactive)
[9]
  GI50: > 100 µM (inactive)
[10]
  GI50: > 100 µM (inactive)
[11]
  GI50: > 100 µM (inactive)
[12]
  GI50: > 100 µM (inactive)
[13]
  GI50: > 100 µM (inactive)
[14]
  GI50: > 100 µM (inactive)
[15]
  GI50: > 100 µM (inactive)
[16]
  GI50: > 100 µM (inactive)
[17]
  GI50: > 100 µM (inactive)
[18]
  GI50: > 100 µM (inactive)
[19]
  GI50: > 100 µM (inactive)
[20]
  GI50: > 100 µM (inactive)

## COc1ccc(-c2[nH]c3c4c(nc5c(c24)C(=O)CC(C)(C)C5)CC(C)(C)C3)cc1
[1]
  GI50: 32.2 µM (inactive)
[2]
  GI50: 95.5 µM (inactive)
[3]
  GI50: > 100 µM (inactive)
[4]
  GI50: 47.3 µM (inactive)
[5]
  GI50: 55.1 µM (inactive)
[6]
  GI50: 93.1 µM (inactive)
[8]
  GI50: 40.4 µM (inactive)
[9]
  GI50: 50.9 µM (inactive)
[10]
  GI50: 50.2 µM (inactive)
[11]
  GI50: 7.03 µM (inactive)
[12]
  GI50: > 100 µM (inactive)
[13]
  GI50: 68.5 µM (inactive)
[14]
  GI50: 95.5 µM (inactive)
[15]
  GI50: 57.4 µM (inactive)
[16]
  GI50: 39.7 µM (inactive)
[17]
  GI50: 63.1 µM (inactive)
[18]
  GI50: > 100 µM (inactive)
[19]
  GI50: 34.4 µM (inactive)
[20]
  GI50: > 100 µM (inactive)

## N=C(Cc1ccccc1)NCC(=O)O
[1]
  GI50: > 100 µM (inactive)
[2]
  GI50: > 100 µM (inactive)
[3]
  GI50: > 100 µM (inactive)
[4]
  GI50: > 100 µM (inactive)
[5]
  GI50: > 100 µM (inactive)
[6]
  GI50: > 100 µM (inactive)
[7]
  GI50: > 100 µM (inactive)
[8]
  GI50: > 100 µM (inactive)
[9]
  GI50: > 100 µM (inactive)
[10]
  GI50: > 100 µM (inactive)
[11]
  GI50: > 100 µM (inactive)
[12]
  GI50: > 100 µM (inactive)
[13]
  GI50: > 100 µM (inactive)
[14]
  GI50: > 100 µM (inactive)
[15]
  GI50: > 100 µM (inactive)
[16]
  GI50: > 100 µM (inactive)
[17]
  GI50: > 100 µM (inactive)
[18]
  GI50: > 100 µM (inactive)
[19]
  GI50: > 100 µM (inactive)
[20]
  GI50: > 100 µM (inactive)
